Results on 28 compounds are retold here after patent publication US12129221B2, “Difluoro phenyl amide RIP1 inhibitor” (SIRONAX LTD, priority 2018, dated 2024).

A short description of data set [1]: Prodrug enhanced metabolic stability: liver microsome (L). In kind it is in vitro ADME. More on the design: key: +, Extrapolated. An excerpt:
(§1) Prodrug Enhanced Metabolic Stability: Liver Microsome (L), Hepatocyte (H) and PK
A general note: Microsomes from liver hold many membrane-bound enzymes, among them those of drug oxidation.

Data set [2] can be described thus: Prodrug enhanced metabolic stability: PK. More on the design: key: +, Extrapolated. The data set is classed as in vivo.
From the text: as §1

Data set [3] in a line: Prodrug enhanced metabolic stability: hepatocyte (H). The data set is classed as in vitro ADME. More on the design: key: +, Extrapolated.
From the text: as §1

Another data set deals with necrosis. Description: Necrosis inhibitory activity (cell necrosis / cell viability assay). In kind it is cell-based. The note with it: Active Pro-drugs; for EC50: read-out: EC50. An excerpt: Necrosis Inhibitory Activity
Representative IC50 of hRIP1 Kinase Assay Correlated with Our IC50 of Cell Necrosis Assay: […]

What is called EC50 is the concentration giving half of the maximal effect. For `[2H]CC([2H])C(C)(C)C(=O)N(Cc1cc(F)cc(F)c1)OC(=O)OCCOC` (stereo not shown) [Compound 65, N-(3,5-difluorobenzyl)-N-(((2-methoxyethoxy)carbonyl)oxy)-2,2-dimethylbutanamide-3,4-d2], in data set [1], the L entry is given as “+”. Moreover, in data set [2], the PK result is given as “+”. Also, in data set [3], the H entry was “+”. Moreover, in the data set on necrosis, the EC50 was 37.2 nM.
For the compound `CCC(C)(C)C(=O)N(Cc1ccccc1)OC(=O)c1cccc(C(=O)ON(Cc2ccccc2)C(=O)C(C)(C)CC)c1` [Compound 54, N,N′-(isophthaloylbis(oxy))bis(N-benzyl-2,2-dimethylbutanamide)], the L entry in data set [1] is reported as “+”. In data set [2], the PK result is listed as “+”. Besides, the H result in data set [3] is recorded as “+”. Also, the EC50 in the data set on necrosis was determined as 466 nM.
With `[2H]CC([2H])C(C)(C)C(=O)N(Cc1cc(F)cc(F)c1)OC(=O)c1cccnc1` (stereo not shown) [Compound 62, N-(3,5-difluorobenzyl)-2,2-dimethyl-N-(nicotinoyloxy)butanamide-3,4-d2], the L result in data set [1] is on record as “+”. Further, in data set [2], the PK entry was “+”. Moreover, in data set [3], the H result was “+”. Besides, in the data set with necrosis, the EC50 was 45.3 nM.
In the case of `[2H]CC([2H])C(C)(C)C(=O)N(Cc1cc(F)cc(F)c1)OC(=O)OCCOCCOCCOC` (stereo not shown) [Compound 67, N-((2,5,8,11-tetraoxadodecanoyl)oxy)-N-(3,5-difluorobenzyl)-2,2-dimethylbutanamide-3,4-d2], the L entry in data set [1] is listed as “+”. For the same compound, the PK entry in data set [2] is on record as “+”. Besides, the H entry in data set [3] is on record as “+”. Moreover, the EC50 with necrosis turned out to be 58.5 nM.
As for `CCOC(=O)ON(Cc1ccccc1)C(=O)C(C)(C)CC` [Compound 50, N-benzyl-N-((ethoxycarbonyl)oxy)-2,2-dimethylbutanamide], the L entry in data set [1] was “+”. In data set [2], the PK entry was “+”. For the same compound, the H entry in data set [3] is given as “+”. For the same compound, the EC50 in the data set with necrosis came to 69.6 nM.
`CCC(C)(C)C(=O)N(Cc1ccccc1)OC(=O)Oc1ccccc1` [Compound 58, N-benzyl-2,2-dimethyl-N-((phenoxycarbonyl)oxy)butanamide]: the L entry in data set [1] is on record as “+”. The PK entry in data set [2] is listed as “+”. For the same compound, in data set [3], the H result was “+”. In addition, the EC50 in the data set on necrosis was found to be 45.1 nM.
Turning to `CCC(C)(C)C(=O)N(Cc1ccccc1)OC(=O)[C@@H](N)C(C)C` [Compound 80, N-((L-valyl)oxy)-N-benzyl-2,2-dimethylbutanamide], the L result in data set [1] was “+”. Besides, in data set [2], the PK entry was “+”. The H entry in data set [3] is recorded as “+”. Besides, the EC50 with necrosis was determined as 24.2 nM.
`CCC(C)(C)C(=O)N(Cc1ccccc1)OP(=O)(OC)OC` [Compound 70, dimethyl ((N-benzyl-2,2-dimethylbutanamido)oxy)phosphonate]: the L result in data set [1] is on record as “+”. In addition, the PK result in data set [2] is given as “+”. Further, the H result in data set [3] is on record as “+”. The EC50 with necrosis amounted to 1700 nM.
On to `CCC(C)(C)C(=O)N(Cc1ccccc1)OC(=O)N1CCCCC1` [Compound 56, N-benzyl-2,2-dimethyl-N-((piperidine-1-carbonyl)oxy)butanamide], for which, in data set [1], the L result is “+”. For the same compound, the PK result in data set [2] was “+”. Further, the H result in data set [3] was “+”. The “EC50(nM)” value in the data set on necrosis is listed as “weak”.
Regarding `[2H]CC([2H])C(C)(C)C(=O)N(Cc1cc(F)cc(F)c1)OC(=O)OCC` (stereo not shown) [Compound 61, N-(3,5-difluorobenzyl)-N-((ethoxycarbonyl)oxy)-2,2-dimethylbutanamide-3,4-d2], the L result in data set [1] is given as “+”. Further, in data set [2], the PK result is recorded as “+”. Besides, in data set [3], the H entry is on record as “+”. Moreover, the EC50 in the data set on necrosis came to 128 nM.
Regarding `CCC(C)(C)C(=O)N(Cc1ccccc1)OP(=O)(N(C)C)N(C)C` [Compound 68, N-benzyl-N-((bis(dimethylamino)phosphoryl)oxy)-2,2-dimethylbutanamide], in data set [1], the L entry is listed as “+”. Moreover, in data set [2], the PK result is reported as “+”. Also, in data set [3], the H entry is given as “+”. In addition, the EC50 in the data set on necrosis came out at 1620 nM.
On to `CCC(C)(C)C(=O)N(Cc1ccccc1)OC(=O)[C@@H](N)CO` [Compound 83, N-((L-seryl)oxy)-N-benzyl-2,2-dimethylbutanamide], for which the L entry in data set [1] was “+”. Further, in data set [2], the PK result was “+”. Also, the H entry in data set [3] was “+”. Besides, the EC50 in the data set on necrosis amounted to 898 nM.
As for `CCC(C)(C)C(=O)N(Cc1ccccc1)OC(=O)OCC(C)C` [Compound 59, N-benzyl-N-((isobutoxycarbonyl)oxy)-2,2-dimethylbutanamide], the L result in data set [1] is “+”. The PK result in data set [2] is “+”. The H entry in data set [3] was “+”. Further, the EC50 with necrosis was 44.8 nM.
Regarding `CCC(C)(C)C(=O)N(Cc1ccccc1)OP(=O)(O)O` [Compound 71, ((N-benzyl-2,2-dimethylbutanamido)oxy)phosphonic acid], in data set [1], the L result is reported as “+”. For the same compound, the PK entry in data set [2] was “+”. In addition, the H result in data set [3] was “+”. Further, in the data set with necrosis, the EC50 was 28.7 nM.
In the case of `CCC(C)(C)C(=O)N(Cc1ccccc1)OCc1ccc(O)cc1` [Compound 73, N-benzyl-N-((4-hydroxybenzyl)oxy)-2,2-dimethylbutanamide], the L result in data set [1] is listed as “+”. For the same compound, in data set [2], the PK result is “+”. For the same compound, in data set [3], the H entry is “+”. Also, the EC50 in the data set on necrosis was 489 nM.
Take `CCC(C)(C)C(=O)N(Cc1ccccc1)OC(=O)c1cccnc1` [Compound 60, N-benzyl-2,2-dimethyl-N-(nicotinoyloxy)butanamide]: the L entry in data set [1] is reported as “+”. Moreover, the PK entry in data set [2] is reported as “+”. Also, the H entry in data set [3] is “+”. In addition, the EC50 in the data set on necrosis came to 83.5 nM.
Regarding `CCC(C)(C)C(=O)N(Cc1ccccc1)OC(=O)c1ccccc1` [Compound 51, N-(benzoyloxy)-N-benzyl-2,2-dimethylbutanamide], the L result in data set [1] is “+”. In addition, the PK entry in data set [2] is listed as “+”. Besides, the H entry in data set [3] was “+”. Also, the EC50 in the data set on necrosis stood at 284 nM.
Consider `CCC(C)(C)C(=O)N(Cc1ccccc1)OC(=O)[C@@H]1CCCN1C(=O)OC(C)(C)C` [Compound 81, tert-butyl (S)-2-(((N-benzyl-2,2-dimethylbutanamido)oxy)carbonyl)pyrrolidine-1-carboxylate], for which, in data set [1], the L entry is “+”. The PK result in data set [2] is “+”. Further, the H result in data set [3] is recorded as “+”. The EC50 in the data set on necrosis is 3250 nM.
For the compound `CCC(C)(C)C(=O)N(Cc1ccccc1)OC(=O)CCCC[C@@H]1SC[C@@H]2NC(=O)N[C@@H]21` [Compound 72, N-benzyl-2,2-dimethyl-N-((5-((3aS,4S,6aR)-2-oxohexahydro-1H-thieno[3,4-d]imidazol-4-yl)pentanoyl)oxy)butanamide], the L entry in data set [1] was “+”. For the same compound, the PK entry in data set [2] is recorded as “+”. Moreover, in data set [3], the H entry is reported as “+”. Further, in the data set on necrosis, the EC50 came to 159 nM.
Regarding `[2H]CC([2H])C(C)(C)C(=O)N(Cc1cc(F)cc(F)c1)OC(=O)OCCOCCOC` (stereo not shown) [Compound 66, N-(3,5-difluorobenzyl)-N-(((2-(2-methoxyethoxy)ethoxy)carbonyl)oxy)-2,2-dimethylbutanamide-3,4-d2], the L entry in data set [1] is given as “+”. In data set [2], the PK result was “+”. In addition, the H result in data set [3] is listed as “+”. Further, the EC50 in the data set with necrosis turned out to be 46 nM.
On to `[2H]CC([2H])C(C)(C)C(=O)N(Cc1cc(F)cc(F)c1)OCOC(=O)C(C)(C)C` (stereo not shown) [Compound 64, ((N-(3,5-difluorobenzyl)-2,2-dimethylbutanamido-3,4-d2)oxy)methyl pivalate], for which the L entry in data set [1] is listed as “+”. Moreover, in data set [2], the PK entry is “+”. Further, the H result in data set [3] is given as “+”. Moreover, the EC50 with necrosis came out at 91.4 nM.
For the compound `CCC(C)(C)C(=O)N(Cc1ccccc1)OC(=O)N1CCC(N2CCCCC2)CC1` [Compound 57, N-(([1,4′-bipiperidine]-1′-carbonyl)oxy)-N-benzyl-2,2-dimethylbutanamide], the L result in data set [1] was “+”. Also, in data set [2], the PK entry is reported as “+”. Further, the H result in data set [3] is given as “+”. In addition, the “EC50(nM)” value with necrosis is recorded as “weak”.
In the case of `CCC(C)(C)C(=O)N(Cc1ccccc1)OCOC(=O)C(C)(C)C` [Compound 63, ((N-benzyl-2,2-dimethylbutanamido)oxy)methyl pivalate], the L result in data set [1] is listed as “+”. The PK result in data set [2] is “+”. Also, the H entry in data set [3] is given as “+”. Moreover, the EC50 in the data set on necrosis was 62.9 nM.
For `CCC(C)(C)C(=O)N(Cc1ccccc1)OC(=O)CC(=O)ON(Cc1ccccc1)C(=O)C(C)(C)CC` [Compound 52, N,N′-(malonylbis(oxy))bis(N-benzyl-2,2-dimethylbutanamide)], the L result in data set [1] is “+”. In data set [2], the PK result is reported as “+”. Besides, the H result in data set [3] is “+”. The EC50 in the data set on necrosis stood at 42.2 nM.
For the compound `CCC(C)(C)C(=O)N(Cc1ccccc1)OC(=O)CCC(=O)ON(Cc1ccccc1)C(=O)C(C)(C)CC` [Compound 53, N,N′-(succinylbis(oxy))bis(N-benzyl-2,2-dimethylbutanamide)], in data set [1], the L entry is on record as “+”. In addition, in data set [2], the PK entry is reported as “+”. Also, the H entry in data set [3] was “+”. Besides, the EC50 with necrosis is 85.5 nM.
`CCC(C)(C)C(=O)N(Cc1ccccc1)OCOP(=O)(OCc1ccccc1)OCc1ccccc1` [Compound 69, dibenzyl (((N-benzyl-2,2-dimethylbutanamido)oxy)methyl) phosphate]: in data set [1], the L result is on record as “+”. For the same compound, the PK result in data set [2] is “+”. The H entry in data set [3] is “+”. Also, in the data set on necrosis, the “EC50(nM)” value is on record as “weak”.
For `CCC(C)(C)C(=O)N(Cc1ccccc1)OC(=O)[C@@H](NC(=O)OC(C)(C)C)C(C)C` [Compound 79, tert-butyl (S)-(1-((N-benzyl-2,2-dimethylbutanamido)oxy)-3-methyl-1-oxobutan-2-yl)carbamate], in data set [1], the L result is recorded as “+”. The PK entry in data set [2] is on record as “+”. Further, in data set [3], the H result is “+”. Besides, the EC50 in the data set with necrosis worked out at 1430 nM.
Turning to `CCC(C)(C)C(=O)N(Cc1ccccc1)OC(=O)CN(C)C` [Compound 82, N-benzyl-N-((dimethylglycyl)oxy)-2,2-dimethylbutanamide], the L entry in data set [1] was “+”. In addition, the PK entry in data set [2] is on record as “+”. Further, the H entry in data set [3] was “+”. In addition, the EC50 in the data set on necrosis is 116 nM.
